Laboratory results reported in US10807993B2, “Dihydrochromene derivatives” (Sumitomo Dainippon Pharma Co., Ltd., priority 2018, dated 2020).
pIC50: −log10 of the molar value.

Tests used:
hERG = hERG (Homo sapiens (Human), UniProt Q12809)
Protocol: To a cultured CHO cell strain which stably expresses hERG was added each test compound to adjust the final concentration of DMSO to 0.0135 to 0.5%. The hERG current was measured with QPatch HT (Sophion Inc.), and the concentration at which 50% of the hERG current was inhibited by each test compound (IC50 value; μM) was calculated.
The compounds of Examples were tested according to Test 2. And, the hERG/HT-29 was calculated by dividing the compound concentration obtained in Test 2 (50% of the hERG current is inhibited) by the compound concentration obtained in Test 1 (50% of the proliferation of HT-29 cells is inhibited).

HT-29 cells = test: Inhibition test for sphere formation assay of cancer cells; assay type: cell-based; conditions: sphere culture (ultra-low attachment, serum-free), 4 days, CellTiter-Glo, read-out: Sphere IC50 value (concentration for 50% inhibition of cell proliferation)
Protocol: Reliable methods established for measuring the self-renewal ability of cells which is one of the CSC's properties include a method for measuring the sphere-forming ability of cancer cells in non-adherent condition in the absence of serum (Cancer Res 65, 5506-5511 (2005)). HT-29 cells were available from American Type Culture Collection (ATCC). HT-29 cells were cultured at 37° C. under 5% CO2 using the McCoy's 5a medium containing 10% fetal bovine serum (FBS) and 1% penicillin/streptomycin. HT-29 cells were seeded in a 384 Well Black Clear Bottom Ultra-Low Attachment Microplate (Corning Cat. No. 3827) in an amount of 350-800 cells/well using the DMEM/F12 medium containing 2% B27 supplement (GIBCO), 20 ng/mL epidermal growth factor (EGF) (peprotech), 10 ng/mL basic fibroblast growth factor (bFGF) (peprotech), 5 μg/mL insulin (Sigma), and 1% penicillin/streptomycin. Each test compound was added into each well to adjust the final concentration of DMSO to 0.1%, and the cells were cultured for 4 days. The number of viable cells in each well was then measured with CellTiter-Glo™ Luminescent Cell Viability Assay (Promega) to calculate the concentration of each test compound for 50% inhibition of cell proliferation (Sphere IC50 value; […])
The experiment of Test 1 was performed for each compound of each Example. The concentration of each test compound for 50% inhibition of cell proliferation (Sphere IC50 value; μmol/L) is shown in the following Table.

hERG, sequence (Q12809 whole entry): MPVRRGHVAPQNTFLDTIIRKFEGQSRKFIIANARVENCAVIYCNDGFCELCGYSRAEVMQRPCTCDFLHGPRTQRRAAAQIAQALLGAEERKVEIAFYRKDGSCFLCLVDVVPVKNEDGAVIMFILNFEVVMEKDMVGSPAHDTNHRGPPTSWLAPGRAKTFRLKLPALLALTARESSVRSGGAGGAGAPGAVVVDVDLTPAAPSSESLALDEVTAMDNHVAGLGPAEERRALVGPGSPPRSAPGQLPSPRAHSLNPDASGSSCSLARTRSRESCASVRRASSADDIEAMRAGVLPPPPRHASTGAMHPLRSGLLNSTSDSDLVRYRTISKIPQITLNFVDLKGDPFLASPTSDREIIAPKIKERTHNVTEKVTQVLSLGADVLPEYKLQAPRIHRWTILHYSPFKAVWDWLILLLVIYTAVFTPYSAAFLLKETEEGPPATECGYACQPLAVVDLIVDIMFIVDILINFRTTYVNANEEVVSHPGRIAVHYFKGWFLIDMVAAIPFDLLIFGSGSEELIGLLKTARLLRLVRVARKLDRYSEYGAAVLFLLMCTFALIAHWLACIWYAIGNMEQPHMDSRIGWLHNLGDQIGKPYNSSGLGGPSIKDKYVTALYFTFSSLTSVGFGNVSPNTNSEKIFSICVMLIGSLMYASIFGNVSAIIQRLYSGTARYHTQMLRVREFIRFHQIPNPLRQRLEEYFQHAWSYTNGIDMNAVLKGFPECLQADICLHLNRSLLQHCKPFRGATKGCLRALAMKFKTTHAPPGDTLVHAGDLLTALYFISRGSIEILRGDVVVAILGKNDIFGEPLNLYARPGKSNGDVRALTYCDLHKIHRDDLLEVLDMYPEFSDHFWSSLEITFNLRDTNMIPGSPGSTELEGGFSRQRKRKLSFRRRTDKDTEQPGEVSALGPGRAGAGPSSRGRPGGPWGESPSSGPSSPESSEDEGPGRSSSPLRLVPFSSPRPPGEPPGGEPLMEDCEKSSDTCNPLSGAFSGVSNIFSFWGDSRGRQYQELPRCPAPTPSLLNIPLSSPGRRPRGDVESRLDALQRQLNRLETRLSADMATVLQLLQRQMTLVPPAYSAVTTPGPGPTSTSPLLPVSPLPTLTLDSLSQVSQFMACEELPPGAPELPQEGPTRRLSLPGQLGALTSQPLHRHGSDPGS

Row | SMILES | pIC50 (HT-29 cells) | pIC50 (hERG) | hERG/HT-29 (hERG)
1 | CC1(C)Oc2ccc(Cl)cc2C2OCC3(CCN(C(=O)Cn4ccnc4CO)CC3)CC21 (stereo not drawn) [Example 15] | 6.52 | 5.80 | 5.33
2 | CC1(C)Oc2ccc(Cl)cc2C2OCC3(CCN(C(=O)Cn4ccnc4C#N)CC3)CC21 (stereo not drawn) [Example 12] | 6.26 | 5.54 | 5.27
3 | CC1(C)Oc2ccc(Cl)cc2C2OCC3(CCN(C(=O)Cn4cnc(C(F)(F)F)c4)CC3)CC21 (stereo not drawn) [Example 17] | 5.08 | 5.52 | 0.36
4 | CC1(C)Oc2ccc(Cl)cc2C2OCC3(CCN(CCn4cnc(CO)c4)CC3)CC21 (stereo not drawn) [Example 55] | 7.22 | 5.80 | 26.7

More lines, main results first:

Row | pIC50 (HT-29 cells) | SMILES | pIC50 (hERG) | hERG/HT-29 (hERG)
5 | 7.10 | Cc1nccn1CC(=O)N1CCC2(CC1)COC1c3cc(Cl)ccc3OC(C)(C)C1C2 (single isomer, unassigned) [Example 3] | 6.70 | 2.50
6 | 7.15 | Cc1nc(CO)cn1CCN1CCC2(CC1)COC1c3ccc(Cl)cc3OC(C)(C)C1C2 (stereo not drawn) [Example 57] | 5.96 | 15.7
7 | 6.80 | CC(=O)NCCc1nccn1CCN1CCC2(CC1)COC1c3cc(Cl)ccc3OC(C)(C)C1C2 (stereo not drawn) [Example 60] | 5.96 | 6.88
8 | 6.51 | Cc1nccn1CC(=O)N1CCC2(CC1)COC1c3ccc(Br)cc3OC(C)(C)C1C2 (stereo not drawn) [Example 8] | 6.52 | 0.97
9 | 7.30 | Cc1nccn1CCN1CCC2(CC1)COC1c3cc(F)ccc3OC(C)(C)C1C2 (stereo not drawn) [Example 43] | 6.00 | 20
10 | 7.52 | Cc1nccn1CCN1CCC2(CC1)COC1c3ccc(Cl)cc3OC(C)(C)C1C2 (stereo not drawn) [Example 50] | 5.82 | 50
